# How the values were obtained:
# MIA PaCa-2 = assay: Cell viability (CellTiter-Glo, 72 h), MIA PaCa-2; format: cell-based, Human; conditions: MIA PaCa-2, 72 hours; for IC50: Homo sapiens; for Bottom: dose-response curve bottom; for Top: dose-response curve top
# Procedure: (§1) Human pancreatic cancer cell lines (PSN1, PANC-1, Panc 04.03, MIA PaCa-2, BxPC-3, and Capan-1) were cultured in their respective culture media. PSN1 cell lines were maintained in RPMI 1640 + 10%FBS. MIA PaCa-2 cells were cultured in DMEM+10%FBS+5% horse serum. Panc 04.03 cells were grown in RPMI 1640 + 15%FBS+10μg/mL Insulin. PANC-1 cells were maintained in DMEM+10%FBS. BxPC-3 cells were cultured in RPMI 1640 + 10%FBS. Capan-1 cells were grown in IMDM+20%FBS. All cells were incubated at 37°C in a humidified atmosphere containing 5% CO2.
# (§2) For assays, cells in the logarithmic growth phase were harvested, seeded to different concentrations at 2,000-6,000 cells/well in 96-well plates. Following overnight incubation, test compounds were added at various concentrations and incubated for 72 hours. Cell viability was assessed by the ATP concentration using the CellTiter-Glo reagent (Promega, Madison, WI 53711 USA), and luminescence values were recorded by a Multilabel Reader (PerkinElmer, Waltham, MA, USA).
# [1] = design: method as in PMID 28726132; conditions: phase 1 clinical trial, given dosage, 5-day dosing time period; cited from earlier work
# BxPC-3 = assay: Cell viability (CellTiter-Glo, 72 h), BxPC-3; format: cell-based, Human; conditions: BxPC-3, 72 hours; for Bottom: dose-response curve bottom; for Top: dose-response curve top; for IC50: Homo sapiens
# Procedure: as §1, §2
# DRAK1 = DRAK1 (Homo sapiens, UniProt Q9UEE5); assay: Kinase assay DRAK1; format: biochemical
# Sequence of DRAK1 (Q9UEE5 whole entry, species assumed): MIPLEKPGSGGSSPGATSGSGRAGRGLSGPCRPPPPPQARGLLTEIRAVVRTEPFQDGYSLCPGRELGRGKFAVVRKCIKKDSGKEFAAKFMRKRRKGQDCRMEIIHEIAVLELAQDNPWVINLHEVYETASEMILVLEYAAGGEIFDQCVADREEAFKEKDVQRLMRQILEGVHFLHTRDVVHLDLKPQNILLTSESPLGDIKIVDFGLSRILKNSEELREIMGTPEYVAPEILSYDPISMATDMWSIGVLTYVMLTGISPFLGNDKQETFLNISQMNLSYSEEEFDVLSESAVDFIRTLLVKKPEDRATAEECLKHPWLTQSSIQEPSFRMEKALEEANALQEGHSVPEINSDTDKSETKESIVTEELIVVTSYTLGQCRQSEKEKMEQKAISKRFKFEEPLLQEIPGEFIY
# Procedure: (§3) Serial dilutions in DMSO were prepared. PLK1 was serially diluted 5-fold from 10 μM, yielding concentrations from 10000 nM to 0.00512 nM. Other targets were serially diluted 3-fold from 10 μM, yielding concentrations from 10000 nM to 0.5 nM. We have used two kinase assays: HTRF assay and ADG-Glo assay.
# (§4) For HTRF Assay, 2× ATP/substrate solution and 2× kinase solution were prepared in kinase reaction buffer. Using an Echo 655, 50 nL of each diluted compound was transferred to a 384-well detection plate. The plate was centrifuged at 1000 rpm for 1 minute. 2.5 μL of 2× kinase solution was added to each well. The plate was incubated at 25°C for 10 minutes. 2.5 μL of 2× ATP/substrate solution was added to each well. The plate was centrifuged at 1000 rpm for 1 minute. The plate was incubated at 25°C for 40 minutes. 2× XL665 and antibody detection reagent were prepared in detection buffer. 5 μL of the prepared kinase detection reagent was added to each well. The plate was centrifuged at 1000 rpm for 1 minute. The plate was incubated at 25°C for 1 hour. Fluorescence signals at 620 nm (Cryptate) and 665 nm (XL665) were measured using a multifunction plate reader.
# (§5) For ADP-Glo Assay, 2× ATP/substrate solution and 2× kinase solution were prepared in kinase reaction buffer. […] Luminescence signals were measured using a multifunction plate reader.
# Sprague-Dawley rats = assay: Sprague-Dawley rat repeated administration toxicity study; conditions: for Death / survival after 9-day dosing: Sprague-Dawley rats, oral 15 mg/kg once a day, n=3; for Rats survived at day 14: female, Sprague-Dawley, po, 14 days
# Procedure: Rat toxicity was studied at JOINN Laboratories (Suzhou, Jiangsu, China). […] […] […] Using 2 mL sterile syringes and gavage tubes, animals were dosed based on their most recent body weight, with volumes rounded to one decimal place. Test compounds were stirred continuously for at least 15 minutes before and during administration. The rats were dosed once a day for 14 days.
# CK1α = CK1α (Homo sapiens, UniProt P48729); assay: Kinase assay CK1α; format: biochemical
# Sequence of CK1α (P48729 whole entry): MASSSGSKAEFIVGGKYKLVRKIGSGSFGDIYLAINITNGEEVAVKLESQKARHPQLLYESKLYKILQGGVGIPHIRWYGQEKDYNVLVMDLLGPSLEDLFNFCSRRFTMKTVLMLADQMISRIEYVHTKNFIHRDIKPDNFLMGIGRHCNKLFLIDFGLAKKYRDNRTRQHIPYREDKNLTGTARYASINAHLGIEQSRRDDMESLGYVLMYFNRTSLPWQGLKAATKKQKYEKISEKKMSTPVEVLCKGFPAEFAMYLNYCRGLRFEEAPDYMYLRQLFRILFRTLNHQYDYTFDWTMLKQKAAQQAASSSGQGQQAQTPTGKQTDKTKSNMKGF
# Procedure: as §3, §4, §5
# RON = RON (Homo sapiens, UniProt Q04912); assay: Kinase assay RON; format: biochemical
# Sequence of RON (Q04912 25-1400, species assumed): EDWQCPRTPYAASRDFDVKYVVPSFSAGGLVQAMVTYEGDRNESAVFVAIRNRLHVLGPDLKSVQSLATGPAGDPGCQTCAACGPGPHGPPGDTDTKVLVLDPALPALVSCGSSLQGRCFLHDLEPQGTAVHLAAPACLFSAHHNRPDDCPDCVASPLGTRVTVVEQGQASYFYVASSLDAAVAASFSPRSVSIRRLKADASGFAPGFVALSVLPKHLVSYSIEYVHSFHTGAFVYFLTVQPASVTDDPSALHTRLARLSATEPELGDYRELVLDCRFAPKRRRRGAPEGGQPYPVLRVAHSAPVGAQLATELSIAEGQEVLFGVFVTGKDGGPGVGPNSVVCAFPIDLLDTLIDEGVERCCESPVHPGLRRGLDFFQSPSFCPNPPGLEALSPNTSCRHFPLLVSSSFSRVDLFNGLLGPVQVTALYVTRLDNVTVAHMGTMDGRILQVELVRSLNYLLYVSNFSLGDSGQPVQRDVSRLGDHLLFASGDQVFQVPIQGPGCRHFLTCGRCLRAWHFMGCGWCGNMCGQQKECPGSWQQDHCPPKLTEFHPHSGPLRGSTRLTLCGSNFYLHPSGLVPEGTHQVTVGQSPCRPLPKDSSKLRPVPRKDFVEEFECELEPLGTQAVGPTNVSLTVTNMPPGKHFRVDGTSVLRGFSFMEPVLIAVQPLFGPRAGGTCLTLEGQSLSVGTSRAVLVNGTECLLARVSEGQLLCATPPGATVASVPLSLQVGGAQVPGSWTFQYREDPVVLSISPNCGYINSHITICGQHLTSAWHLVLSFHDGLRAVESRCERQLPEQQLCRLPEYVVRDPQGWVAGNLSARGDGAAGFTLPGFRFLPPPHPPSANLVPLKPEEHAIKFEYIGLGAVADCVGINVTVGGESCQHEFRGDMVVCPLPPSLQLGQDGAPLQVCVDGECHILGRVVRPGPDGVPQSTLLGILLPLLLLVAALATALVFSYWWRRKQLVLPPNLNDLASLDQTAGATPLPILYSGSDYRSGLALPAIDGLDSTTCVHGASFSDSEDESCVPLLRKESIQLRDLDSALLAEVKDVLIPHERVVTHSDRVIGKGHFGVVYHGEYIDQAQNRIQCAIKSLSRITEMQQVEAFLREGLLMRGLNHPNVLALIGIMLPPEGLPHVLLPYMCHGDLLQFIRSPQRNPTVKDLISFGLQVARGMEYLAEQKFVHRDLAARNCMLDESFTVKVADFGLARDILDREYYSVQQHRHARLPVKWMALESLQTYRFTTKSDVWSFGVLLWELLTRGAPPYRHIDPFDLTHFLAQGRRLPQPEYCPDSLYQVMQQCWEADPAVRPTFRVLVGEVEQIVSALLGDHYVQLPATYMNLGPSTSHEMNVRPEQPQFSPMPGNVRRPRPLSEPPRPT
# Procedure: as §3, §4, §5
# PSN1 = assay: Cell viability (CellTiter-Glo, 72 h), PSN1; format: cell-based, Human; conditions: PSN1, 72 hours; for IC50: Homo sapiens; for Bottom: dose-response curve bottom; for Top: dose-response curve top
# Procedure: as §1, §2
SMILES,IC50 (MIA PaCa-2) [nM],Bottom (MIA PaCa-2),Top (MIA PaCa-2),Tolerability [1],Bottom (BxPC-3),Top (BxPC-3),IC50 (BxPC-3) [nM],IC50 (DRAK1) [nM],Death / survival after 9-day dosing (Sprague-Dawley rats; 15 mg/kg),"Rats survived at day 14 (Sprague-Dawley rats; rat, in vivo, 15 mg/kg)",IC50 (CK1α) [nM],IC50 (RON) [nM],IC50 (PSN1) [nM],Bottom (PSN1),Top (PSN1),Death / survival after 9-day dosing (Sprague-Dawley rats),"Tolerability (Sprague-Dawley rats; rat, in vivo, 10 mg/kg)"
CN1CCN(c2ccc(OC(F)(F)F)c(Nc3ncc4c(n3)-c3c(c(C(N)=O)nn3CCO)CC4)c2)CC1 [NMS-P937],196,-4.1,78.7,well tolerated,-2.8,53.5,64.9,44.6,1 out of 3 rats treated with NMS-P937 died and Death of 1/3 rat,2/3,184,1090,48.9,2.3,85.9,–,–
[2H]C1([2H])N(C)C([2H])([2H])C([2H])([2H])N(c2ccc(OC(F)(F)F)c(Nc3ncc4c(n3)-c3c(c(C(N)=O)nn3CCO)CC4)c2)C1([2H])[2H] [PR00012],262,8.4,86.8,–,13.6,66.3,65.1,48.7,–,3/3,182,905,60.7,13.7,93.7,all three rats treated with PR00012 survived,the rats were still tolerable

# — PMC11968394, “The effect of deuterated PLK1 inhibitor on its safety and efficacy in vivo” (Frontiers in Oncology, 2025)
